The values below come from patent publication US20230382915A1, “GCN2 AND PERK KINASE INHIBITORS AND METHODS OF USE THEREOF” (Deciphera Pharmaceuticals, LLC, priority 2021, published 2023).

SMILES strings stand for the structures. Bounds are passed on as bounds.

One experiment has as its target GCN2 kinase (Homo sapiens (Human), UniProt Q9P2K8). The experiment in a line: Biochemical assay for GCN2 (TR-FRET kinase activity). To be noted: 1 mM ATP. The method, then: Activity of GCN2 kinase was determined using a TR-FRET kinase activity assay (e.g. Riddle et al. Analytical Biochemistry (2006) 356(1) 108-116). Assays were conducted in 384-well plates (13 μL assay volume) using 2 nM GCN2 (Carna Biosciences), 130 nM GFP-EIf2α (Invitrogen), 0.2 mg/mL E. coli tRNA (sigma) and 1 mM ATP in kinase buffer (Invitrogen). Inhibition of GCN2 was measured by adding serial diluted test compound (final assay concentration of 0.5% DMSO) followed by a 3-hour incubation. Tb-peIF2α (pSer52) antibody (Invitrogen) (2 nM final assay concentration) in kinase buffer containing EDTA (final assay concentration of 20 mM) was added. After a 60 min incubation at room temperature, TR-FRET was monitored using an excitation wavelength of 340 nm and emission wavelengths of 490 nm and 520 nm. The emission ratio (520/490) at each compound concentration of was converted to percent inhibition using controls (i.e., reaction with no test compound and reaction with a known inhibitor) and IC50 values were calculated by fitting a four-parameter sigmoidal curve to the data using Prism (GraphPad software).
(TR-FRET usually uses a lanthanide donor and a delayed reading to cut background.)

A further experiment deals with PERK enzyme (Homo sapiens (Human), UniProt Q9NZJ5). Kind of experiment: Biochemical assay for PERK (coupled pyruvate kinase/lactate dehydrogenase). To be noted: 1 mM ATP. The method, then: Activity of PERK kinase was determined spectroscopically using a coupled pyruvate kinase/lactate dehydrogenase assay that continuously monitors the ATP hydrolysis-dependent oxidation of NADH (e.g., Schindler et al. Science (2000) 289: 1938-1942). Assays were conducted in 384-well plates ([…] final volume) using 10 nM PERK (from Beryllium), 0.25 mg/mL Myelin Basic Protein substrate, 1.5 units pyruvate kinase, 2.1 units lactate dehydrogenase, 1 mM phosphoenol pyruvate, 0.28 mM NADH and 1 mM ATP in assay buffer (100 mM Tris, pH 7.5, 15 mM MgCl2, 0.5 mM DTT, 0.004% (w/v) BSA, and 0.004% Triton X-100). Inhibition of PERK was measured by adding serial diluted test compound (final assay concentration of 1% DMSO). A decrease in absorption at 340 nm was monitored continuously for 6 hours at 30° C. on a multi-mode microplate reader (BioTek). The reaction rate was calculated using the 2-3 h time frame. The reaction rate at each concentration of compound was converted to percent inhibition using controls (i.e., reaction with no test compound and reaction with a known inhibitor) and IC50 values were calculated using software routines in Prism (GraphPad software).
Chain of PERK enzyme (Q9NZJ5 other isoform, or with tags, fused parts or gaps): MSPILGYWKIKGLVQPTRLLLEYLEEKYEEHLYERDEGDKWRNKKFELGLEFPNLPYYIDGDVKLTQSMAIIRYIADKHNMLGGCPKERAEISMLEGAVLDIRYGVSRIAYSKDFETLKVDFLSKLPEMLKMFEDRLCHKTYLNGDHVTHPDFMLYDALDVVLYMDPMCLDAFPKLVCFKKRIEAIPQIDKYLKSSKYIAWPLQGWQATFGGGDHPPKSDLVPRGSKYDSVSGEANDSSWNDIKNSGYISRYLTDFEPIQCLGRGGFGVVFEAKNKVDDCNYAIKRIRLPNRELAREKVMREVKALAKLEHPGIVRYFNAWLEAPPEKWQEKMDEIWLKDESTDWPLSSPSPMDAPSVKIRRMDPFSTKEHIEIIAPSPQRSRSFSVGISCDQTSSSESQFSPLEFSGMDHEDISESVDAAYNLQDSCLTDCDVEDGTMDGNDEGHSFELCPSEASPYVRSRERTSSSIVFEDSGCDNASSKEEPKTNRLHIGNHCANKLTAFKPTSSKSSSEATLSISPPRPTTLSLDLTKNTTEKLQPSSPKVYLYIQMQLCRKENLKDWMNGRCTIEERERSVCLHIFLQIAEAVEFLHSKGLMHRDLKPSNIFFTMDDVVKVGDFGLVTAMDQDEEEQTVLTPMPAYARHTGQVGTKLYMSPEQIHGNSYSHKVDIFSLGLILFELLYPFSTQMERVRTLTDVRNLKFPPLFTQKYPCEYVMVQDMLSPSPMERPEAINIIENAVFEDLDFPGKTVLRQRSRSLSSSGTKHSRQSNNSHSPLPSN

For a further experiment, the system named is CCRF-CEM leukemia cells. The experiment in a line: CCRF-CEM ASNase cell proliferation assay. It counts as cell-based. The settings on record: Homo sapiens, 1 mU/mL ASNase, 72 h. The procedure: CCRF-CEM leukemia cells (catalog #CCL-116) were obtained from the American Type Culture Collect (ATTC, Manassas, VA). Cells were grown in RPMI-1640 medium supplemented with 10% heat-inactivated fetal bovine serum (Invitrogen, Carlsbad, CA) and 1% Penicillin/Streptomycin/L-Glutamine at 37° C., 5% CO2, and 95% humidity. Cells were expanded until reaching one million cells per mL at which time they are subcultured or harvested for assay use. Ten thousand cells per well in 200 μL RPMI-1640 supplemented with 10% heat-inactivated fetal bovine serum and 1% Penicillin/Streptomycin were dispensed into a 96-well black clear bottom plate. A serial dilution of test compound and 1 mU/mL ASNase was added in triplicate and plates were incubated for 72 h at 37° C., 5% CO2, and 95% humidity. At the end of the incubation, 40 μL of a […] solution of resazurin (Sigma, St. Louis, MO) in PBS was added to each well of the plate and plates were incubated for an additional 6 h at 37° C., 5% CO2, and 95% humidity. Plates were read on a Synergy2 or equivalent reader (Biotek, Winooski VT) using an excitation of 540 nm and an emission of 600 nm. Data was analyzed using GraphPad Prism software (GraphPad, San Diego, CA) to calculate IC50 values.

In experiment [1] the test system is ATF4 in thapsigargin stimulated CCRF-CEM cells (PERK). Kind of experiment: CCRF-CEM thapsigargin (TG) ATF4 ELISA. It counts as cell-based. To be noted: Homo sapiens, 1 μM thapsigargin. The method, then:
CCRF-CEM leukemia cells (catalog #CCL-116) were obtained from the American Type Culture Collection (ATTC, Manassas, VA). Briefly, cells were grown in RPMI-1640 medium supplemented with 10% heat-inactivated fetal bovine serum (Invitrogen, Carlsbad, CA) and 1% Penicillin/Streptomycin/L-Glutamine at 37° C., 5% CO2, and 95% humidity. Cells were expanded until reaching one million cells per mL at which time they were subcultured or harvested for assay use. One million five hundred thousand cells per well in 1 mL complete growth medium were dispensed into 12-well plates and incubated overnight. A serial dilution of test compound was added and cells were incubated at 37° C., 5% CO2, and 95% for three hours, then 1 μM thapsigargin was added and cells were incubated for an additional hour at 37° C., 5% CO2, and 95%. Cells were lysed then ATF4 levels were measured using an ELISA assay (Proteintech, Rosemont, IL). Absorbance was measured at 450 nm and 544 nM using a Synergy2 or equivalent reader (Biotek, Winooski VT). Data was analyzed using PRISM software (Graphpad, San Diego, CA) to calculate IC50 values.
(In an ELISA, binding on a coated surface is turned into a signal by an enzyme label.)

The subject of experiment [2] is ATF4 in H929 multiple myeloma cells. Kind of experiment: H929 ATF4 ELISA assay. It counts as cell-based. To be noted: four hours, relative to vehicle treated control. The procedure: H929 multiple myeloma cells (catalog #CRL-9068) were obtained from the American Type Culture Collection (ATTC, Manassas, VA). Briefly, cells were grown in RPMI-1640 medium supplemented with 20% heat-inactivated fetal bovine serum (catalog #A3840002, ThermoFisher Scientific, Waltham, MA), 1% Penicillin/Streptomycin/L-Glutamine (catalog #10378016, ThermoFisher Scientific, Waltham, MA), and 0.05 mM 2-mercaptoethanol (catalog #21985-023, ThermoFisher Scientific, Waltham, MA) at 37° C., 5% CO2, and 95% humidity. Cells were expanded until reaching one million five hundred thousand cells per mL at which time they were sub-cultured or harvested for assay use. One million five hundred thousand cells per well in 1 mL complete growth medium were dispensed into 12-well plates and incubated overnight. A serial dilution of test compound was added, and cells were incubated at 37° C., 5% CO2, and 95% for four hours. Cells were lysed then ATF4 levels were measured using an ELISA assay (Proteintech, Rosemont, IL). Absorbance is measured at 450 nm and 544 nM using a Synergy2 or equivalent reader (Biotek, Winooski VT). Data were analyzed using PRISM software (Graphpad, San Diego, CA) to calculate fold stimulation of cellular ATF4 relative to vehicle treated control.

The subject of experiment [3] is phospho-GCN2 (Thr899) in HCT116 colorectal cancer cells. Kind of experiment: HCT116 amino acid starved (-AA) phospho-GCN2 Western blot. It counts as cell-based. To be noted: Homo sapiens, HCT-116, 4 h, read-out: HCT116 -AA pGCN2 Western Blot. The procedure: (§1) HCT116 colorectal cancer cells (catalog #CCL-247) were obtained from the American Type Culture Collect (ATTC, Manassas, VA). Briefly, cells were grown in RPMI 1640 supplemented with 10% heat inactivated fetal bovine serum (Invitrogen, Carlsbad, CA) and 1% Penicillin/Streptomycin/L-Glutamine at 37° C., 5% CO2, and 95% humidity. Cells were expanded until reaching 70-95% confluency at which point they were subcultured or harvested for assay use. Cells were seeded in 12-well culture plate at five hundred thousand cells per well in 1 mL complete growth medium and incubated overnight at 37° C., 5% CO2, and 95% humidity. The next day each well was replaced with 1 mL Earle's Balanced Salt Solution (EBSS, Invitrogen, Carlsbad, CA) supplemented with 10% Dialyzed Fetal Bovine Serum, 5.5 mM Glucose, 1% Penicillin/Streptomycin and 1% Vitamin solution (thermo #11120052). A serial dilution of test compound was dispensed into well. Plates were incubated for 4 h at 37° C., 5% CO2, and 95% humidity. […] Western blot was performed on each lysate to quantify phospho-GCN2 (Thr899), total GCN2, ATF4 and beta-Actin. […] Data were analyzed using GraphPad Prism software (GraphPad, San Diego, CA) to calculate IC50 values.

The test system of experiment [4] is ATF4 in HCT116 colorectal cancer cells. Kind of experiment: HCT116 amino acid starved (-AA) ATF4 Western blot. The settings on record: Homo sapiens, HCT-116, 4 h. The experiment is classed as cell-based. The procedure:
as §1
(A western blot detects proteins with antibodies after separation by electrophoresis.)

Chain of GCN2 kinase (Q9P2K8 whole entry): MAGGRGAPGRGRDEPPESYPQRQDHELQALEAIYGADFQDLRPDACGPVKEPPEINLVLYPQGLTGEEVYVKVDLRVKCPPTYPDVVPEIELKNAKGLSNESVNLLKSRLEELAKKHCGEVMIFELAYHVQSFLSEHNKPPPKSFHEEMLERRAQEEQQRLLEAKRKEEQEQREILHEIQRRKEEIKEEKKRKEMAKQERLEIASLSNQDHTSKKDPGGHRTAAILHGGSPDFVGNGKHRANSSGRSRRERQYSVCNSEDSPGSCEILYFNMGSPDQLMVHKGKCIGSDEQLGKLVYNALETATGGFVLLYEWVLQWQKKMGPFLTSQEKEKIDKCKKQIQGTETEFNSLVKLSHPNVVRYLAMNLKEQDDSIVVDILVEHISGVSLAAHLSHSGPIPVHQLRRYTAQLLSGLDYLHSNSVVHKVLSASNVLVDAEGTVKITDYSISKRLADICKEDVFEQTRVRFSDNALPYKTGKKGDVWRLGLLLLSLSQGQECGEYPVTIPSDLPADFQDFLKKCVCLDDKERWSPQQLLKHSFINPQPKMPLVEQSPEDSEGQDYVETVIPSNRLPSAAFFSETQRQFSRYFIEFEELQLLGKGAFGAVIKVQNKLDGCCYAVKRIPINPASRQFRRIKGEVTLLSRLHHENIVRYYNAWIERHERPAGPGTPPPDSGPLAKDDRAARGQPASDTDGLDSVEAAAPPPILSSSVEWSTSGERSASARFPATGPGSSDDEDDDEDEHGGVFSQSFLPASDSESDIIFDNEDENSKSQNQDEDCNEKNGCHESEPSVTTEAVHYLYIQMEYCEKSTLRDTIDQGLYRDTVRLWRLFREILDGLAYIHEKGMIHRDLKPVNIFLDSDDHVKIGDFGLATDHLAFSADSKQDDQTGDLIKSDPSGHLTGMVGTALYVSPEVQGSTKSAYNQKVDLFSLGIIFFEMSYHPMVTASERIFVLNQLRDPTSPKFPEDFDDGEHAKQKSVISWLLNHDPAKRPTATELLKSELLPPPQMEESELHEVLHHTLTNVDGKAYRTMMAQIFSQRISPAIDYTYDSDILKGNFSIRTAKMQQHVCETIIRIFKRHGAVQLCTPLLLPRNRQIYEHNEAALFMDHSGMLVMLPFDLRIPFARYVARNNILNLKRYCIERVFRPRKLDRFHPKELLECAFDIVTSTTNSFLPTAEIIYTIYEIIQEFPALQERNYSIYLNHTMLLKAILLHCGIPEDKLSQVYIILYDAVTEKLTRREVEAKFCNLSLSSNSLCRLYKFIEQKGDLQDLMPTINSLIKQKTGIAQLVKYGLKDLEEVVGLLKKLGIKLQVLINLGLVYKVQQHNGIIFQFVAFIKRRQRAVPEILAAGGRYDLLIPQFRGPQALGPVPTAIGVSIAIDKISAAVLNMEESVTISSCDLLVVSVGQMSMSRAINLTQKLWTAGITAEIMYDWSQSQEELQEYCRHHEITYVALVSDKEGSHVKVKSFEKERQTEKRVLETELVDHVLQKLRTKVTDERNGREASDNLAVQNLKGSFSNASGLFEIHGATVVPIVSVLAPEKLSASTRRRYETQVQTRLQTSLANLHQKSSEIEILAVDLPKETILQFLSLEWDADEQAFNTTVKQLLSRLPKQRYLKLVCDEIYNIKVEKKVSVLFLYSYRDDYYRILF

On to `Cn1cc(-c2cc(F)cc(NS(=O)(=O)c3cc(Cl)cc(CO)c3Cl)c2F)c2c(N)ncnc21` [Example 14], for which the IC50 is no more than 0.1 µM on GCN2 kinase, no more than 0.1 µM against PERK enzyme, 0.1 to 0.5 µM in the experiment with CCRF-CEM leukemia cells and 0.1 to 0.5 µM in experiment [1]. Moreover, in experiment [2], the “H929 NS ATF4 ELISA (ATF4 stim)” value was “++ (an ATF4 stim greater than 5-fold and less than or equal to 10 fold)”.

Take `COc1c(CO)cc(Cl)cc1S(=O)(=O)Nc1cccc(-c2cn(C)c3ncnc(N)c23)c1F` [Example 24]: the IC50 against GCN2 kinase was 1 to 10 µM; on PERK enzyme, no more than 0.1 µM; in the experiment with CCRF-CEM leukemia cells, 1 to 10 µM; in experiment [1] it was 0.1 to 0.5 µM. In experiment [2], the “H929 NS ATF4 ELISA (ATF4 stim)” value is “++ (an ATF4 stim greater than 5-fold and less than or equal to 10 fold)”.

For the compound `Nc1ncnc2c1c(-c1cccc(NS(=O)(=O)c3cc(Cl)cc(CO)c3Cl)c1F)cn2C1CC1` [Example 8], the IC50 (against GCN2 kinase; against PERK enzyme; with CCRF-CEM leukemia cells; in experiment [1]) was no more than 0.1 µM in each case. The “H929 NS ATF4 ELISA (ATF4 stim)” value in experiment [2] was “+++ (an ATF4 stim greater than 10 fold and less than or equal to 20 fold)”.

Consider `Cn1nc(-c2cccc(NS(=O)(=O)c3cc(Cl)cc(CO)c3Cl)c2F)c2c(N)ncnc21` [Example 21], for which the IC50 is no more than 0.1 µM against GCN2 kinase, no more than 0.1 µM against PERK enzyme, 0.1 to 0.5 µM with CCRF-CEM leukemia cells and 0.1 to 0.5 µM in experiment [1]. Besides, the “H929 NS ATF4 ELISA (ATF4 stim)” value in experiment [2] was “++ (an ATF4 stim greater than 5-fold and less than or equal to 10 fold)”.

Take `CC(C)n1cc(-c2cccc(NS(=O)(=O)c3cc(Cl)cc(CO)c3Cl)c2F)c2c(N)ncnc21` [Example 3]: the IC50 (against GCN2 kinase; at PERK enzyme; in the experiment on CCRF-CEM leukemia cells; in experiment [3]; in experiment [4]; in experiment [1]) was no more than 0.1 µM each time.

Take `Nc1ncnc2c1c(-c1cccc(NS(=O)(=O)c3cc(Cl)cc(CO)c3Cl)c1F)cn2C1COC1` [Example 10]: the IC50 (against GCN2 kinase; against PERK enzyme; in the experiment with CCRF-CEM leukemia cells; in experiment [1]) was no more than 0.1 µM each time. Also, in experiment [2], the “H929 NS ATF4 ELISA (ATF4 stim)” value is “+++ (an ATF4 stim greater than 10 fold and less than or equal to 20 fold)”.

In the case of `Cc1cc(CO)c(Cl)c(S(=O)(=O)Nc2cccc(-c3cn(C)c4ncnc(N)c34)c2F)c1` [Example 25], the IC50 against GCN2 kinase was 0.1 to 0.5 µM; against PERK enzyme, no more than 0.1 µM; in the experiment with CCRF-CEM leukemia cells, 0.1 to 0.5 µM; in experiment [1], no more than 0.1 µM. In addition, the “H929 NS ATF4 ELISA (ATF4 stim)” value in experiment [2] is “+++ (an ATF4 stim greater than 10 fold and less than or equal to 20 fold)”.

For the compound `Cn1cc(-c2cccc(NS(=O)(=O)c3cccc(CO)c3Cl)c2F)c2c(N)ncnc21` [Example 5], the IC50 on GCN2 kinase is 1 to 10 µM; at PERK enzyme, no more than 0.1 µM; in the experiment on CCRF-CEM leukemia cells it was 1 to 10 µM; in experiment [1], 0.1 to 0.5 µM. For the same compound, the “H929 NS ATF4 ELISA (ATF4 stim)” value in experiment [2] was “++ (an ATF4 stim greater than 5-fold and less than or equal to 10 fold)”.

Consider `Cc1c(CO)cc(Cl)cc1S(=O)(=O)Nc1cccc(-c2cn(C)c3ncnc(N)c23)c1F` [Example 26], for which the IC50 at GCN2 kinase was no more than 0.1 µM; against PERK enzyme, no more than 0.1 µM; with CCRF-CEM leukemia cells, 0.1 to 0.5 µM; in experiment [1] it was no more than 0.1 µM. Moreover, the “H929 NS ATF4 ELISA (ATF4 stim)” value in experiment [2] was “+++ (an ATF4 stim greater than 10 fold and less than or equal to 20 fold)”.

As for `COCCn1cc(-c2cccc(NS(=O)(=O)c3cc(Cl)cc(CO)c3Cl)c2F)c2c(N)ncnc21` [Example 4], the IC50 (against GCN2 kinase; against PERK enzyme; with CCRF-CEM leukemia cells; in experiment [1]) was no more than 0.1 µM in each case. Moreover, the “H929 NS ATF4 ELISA (ATF4 stim)” value in experiment [2] is “+++ (an ATF4 stim greater than 10 fold and less than or equal to 20 fold)”.
